From patent US8143255B2, “Heteroalkyl linked pyrimidine derivatives” (S*BIO Pte Ltd., priority 2005, dated 2012)

Key:
[1] = tested on: DU145 (metastatic prostate cancer cell line); experiment: Cell-based proliferation assay, DU145; settings: Homo sapiens, DU-145; DU145 cells, 96 h treatment
Protocol: (§1) Human cancer cell lines HL60 (acute myeloid leukemia cell line), Colo205 (colon adenocarcinoma cell line), HEL92.1.7 (erythroleukemia cell line), MV4-11 (acute myeloid leukemia cell line) and DU145 (metastatic prostate cancer cell line) were obtained from ATCC. They were cultivated in the media according to the ATCC work instructions. Colo205 and DU145 cells were seeded in 96-wells plate 5000 cells per cell and 1000 cells per well respectively. HEL92.1.7 and MV4-11 cells were seeded at 6000 cells per well while HL60 cells were seeded at 8000 cells per well in 96 well plate. The plates were incubated at 37° C., 5% CO2, for 24 h. Cells were treated with compounds at various concentrations for 96 h. Cell growth was then monitored using Celltiter96 Aqueous One Solution Cell Proliferation Assay from Promega (Madison Wis.). Dose response curves were plotted to determine GI50 values for the compounds using XL-fit (ID Business Solution, Emeryville, Calif.).

JAK2 V617F = target: T1, JAK2 V617F (Homo sapiens, UniProt O60674, V617F); experiment: In vitro kinase activity assay (PKLight), JAK2 V617F mutant; assay type: biochemical; settings: recombinant JAK2 V617F mutant, poly(Glu,Ala,Tyr) substrate, 0.2 μM ATP
T1 construct: purchased Invitrogen PV4347
Protocol: (§2) All assays were carried out in 384-well white microtiter plates using the PKLight assay system from Cambrex (East rutherford, N.J.). This assay platform is essentially a luminometdc assay for the detection of ATP in the reaction using a luciferase-coupled reaction. For CDK2/Cyclin A assay, the reaction mixture consisted of the following components in 25 μL assay buffer (50 mM Hepes pH 7.5, 10 mM MgCl2, 5 mM MnCl2, 5 mM BGP, 1 mM DTT, 0.1 mM sodium orthovanadate), 1.4 μg/mL of CDK2/Cyclin A complex, 0.5 μM of RbING substrate (Invitrogen, Cat # PV2939) and 0.5 μM of ATP. The compounds were tested at 8 concentrations prepared from 4-fold serial dilution starting at 10 μM. The reaction was incubated at room temperature for 2 hr. 13 μL of PKLight ATP detection reagent was added and the reaction was incubated for 10 min. Luminescence signals were detected on a multi-label plate reader (Victor^2 V 1420, Perkin-Elmer). The other kinase assays were identical except for the following differences in reagents. For FLT3 assays, the reaction contained 2.0 μg/mL FLT3 enzyme, 5 μM of poly(Glu,Tyr) substrate (Sigma, Cat # P0275) and 4 μM of ATP. For JAK2 assays, the reaction contained 0.6 μg/mL of JAK2 enzyme, 2 μM of poly(Glu,Ala,Tyr) substrate (Sigma, Cat # P3899) and 0.2 μM of ATP. […] The analytical software, Prism 4.0 (GraphPad Software Pte Ltd) was used to generate IC50 values from the data.

[2] = tested on: HL60 (acute myeloid leukemia cell line); experiment: Cell-based proliferation assay, HL60; settings: Homo sapiens, HL-60; HL60 cells, 96 h treatment
Protocol: as §1

[3] = tested on: HEL92.1.7 (erythroleukemia cell line); experiment: Cell-based proliferation assay, HEL92.1.7; settings: Homo sapiens, HEL 92.1.7; HEL92.1.7 cells, 96 h treatment
Protocol: as §1

[4] = tested on: MV4-11 (acute myeloid leukemia cell line); experiment: Cell-based proliferation assay, MV4-11; settings: Homo sapiens; MV4-11 cells, 96 h treatment
Protocol: as §1

[5] = tested on: Colo205 (colon adenocarcinoma cell line); experiment: Cell-based proliferation assay, Colo205; settings: Homo sapiens, COLO 205; Colo205 cells, 96 h treatment
Protocol: as §1

JAK2 = target: T2, JAK2 (Homo sapiens, UniProt O60674); experiment: In vitro kinase activity assay (PKLight), JAK2; assay type: biochemical; settings: recombinant JAK2, poly(Glu,Ala,Tyr) substrate, 0.2 μM ATP
T2 construct: purchased Invitrogen PV4210
Protocol: as §2

FLT3 = target: T3, FLT3 (Homo sapiens, UniProt P36888); experiment: In vitro kinase activity assay (PKLight), FLT3; assay type: biochemical; settings: recombinant FLT3, poly(Glu,Tyr) substrate, 4 μM ATP
T3 construct: purchased Invitrogen PV3182
T3 sequence (P36888 27-993): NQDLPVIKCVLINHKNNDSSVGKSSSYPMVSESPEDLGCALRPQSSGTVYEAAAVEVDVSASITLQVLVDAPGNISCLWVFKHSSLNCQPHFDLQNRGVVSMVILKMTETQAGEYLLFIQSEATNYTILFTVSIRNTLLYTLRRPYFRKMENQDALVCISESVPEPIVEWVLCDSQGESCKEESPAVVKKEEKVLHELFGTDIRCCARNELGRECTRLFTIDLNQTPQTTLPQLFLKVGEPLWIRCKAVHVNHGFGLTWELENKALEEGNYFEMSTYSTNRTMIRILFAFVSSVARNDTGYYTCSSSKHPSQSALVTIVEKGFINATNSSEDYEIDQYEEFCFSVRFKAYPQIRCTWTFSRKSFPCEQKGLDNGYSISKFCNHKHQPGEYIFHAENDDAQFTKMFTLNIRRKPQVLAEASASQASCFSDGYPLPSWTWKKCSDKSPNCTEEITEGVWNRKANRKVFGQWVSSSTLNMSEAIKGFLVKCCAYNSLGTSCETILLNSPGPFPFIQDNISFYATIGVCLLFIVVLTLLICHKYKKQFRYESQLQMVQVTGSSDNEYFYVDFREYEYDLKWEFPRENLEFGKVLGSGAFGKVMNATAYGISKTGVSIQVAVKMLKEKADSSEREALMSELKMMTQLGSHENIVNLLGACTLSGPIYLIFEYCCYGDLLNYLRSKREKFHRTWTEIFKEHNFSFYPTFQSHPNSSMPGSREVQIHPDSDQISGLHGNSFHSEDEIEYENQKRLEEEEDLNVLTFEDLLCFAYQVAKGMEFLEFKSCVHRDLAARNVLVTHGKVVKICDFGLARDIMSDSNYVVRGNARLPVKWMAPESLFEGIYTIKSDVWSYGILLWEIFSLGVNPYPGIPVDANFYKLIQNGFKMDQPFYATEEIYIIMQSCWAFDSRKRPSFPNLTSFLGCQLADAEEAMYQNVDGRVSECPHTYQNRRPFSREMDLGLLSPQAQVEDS
Protocol: The recombinant enzymes (CDK2/CyclinA, FLT3, JAK2 and JAK2 V617F) were purchased from Invitrogen (Cat # PV3267, 3182, 4210 and 4347 respectively). All assays were carried out in 384-well white microtiter plates using the PKLight assay system from Cambrex (East rutherford, N.J.). This assay platform is essentially a luminometdc assay for the detection of ATP in the reaction using a luciferase-coupled reaction. For CDK2/Cyclin A assay, the reaction mixture consisted of the following components in 25 μL assay buffer (50 mM Hepes pH 7.5, 10 mM MgCl2, 5 mM MnCl2, 5 mM BGP, 1 mM DTT, 0.1 mM sodium orthovanadate), 1.4 μg/mL of CDK2/Cyclin A complex, 0.5 μM of RbING substrate (Invitrogen, Cat # PV2939) and 0.5 μM of ATP. The compounds were tested at 8 concentrations prepared from 4-fold serial dilution starting at 10 μM. The reaction was incubated at room temperature for 2 hr. 13 μL of PKLight ATP detection reagent was added and the reaction was incubated for 10 min. Luminescence signals were detected on a multi-label plate reader (Victor^2 V 1420, Perkin-Elmer). The other kinase assays were identical except for the following differences in reagents. For FLT3 assays, the reaction contained 2.0 μg/mL FLT3 enzyme, 5 μM of poly(Glu,Tyr) substrate (Sigma, Cat # P0275) and 4 μM of ATP. For JAK2 assays, the reaction contained 0.6 μg/mL of JAK2 enzyme, 2 μM of poly(Glu,Ala,Tyr) substrate (Sigma, Cat # P3899) and 0.2 μM of ATP. For JAK2 V617F mutant assays, the reaction contained 8.0 μg/mL of JAK2 mutant enzyme, 2 μM of poly(Glu,Ala,Tyr) substrate (Sigma, Cat # P3899) and 0.2 μM of ATP. The analytical software, Prism 4.0 (GraphPad Software Pte Ltd) was used to generate IC50 values from the data. […] IC50 values are shown below in Table 3.

CDK2/CyclinA = target: T4, CDK2/CyclinA (Homo sapiens, UniProt P24941); experiment: In vitro kinase activity assay (PKLight), CDK2/Cyclin A; assay type: biochemical; settings: recombinant CDK2/Cyclin A, RbING substrate, 0.5 μM ATP, 2 hr
T4 construct: purchased Invitrogen PV3267
Protocol: as §2

T2 sequence (O60674 whole entry): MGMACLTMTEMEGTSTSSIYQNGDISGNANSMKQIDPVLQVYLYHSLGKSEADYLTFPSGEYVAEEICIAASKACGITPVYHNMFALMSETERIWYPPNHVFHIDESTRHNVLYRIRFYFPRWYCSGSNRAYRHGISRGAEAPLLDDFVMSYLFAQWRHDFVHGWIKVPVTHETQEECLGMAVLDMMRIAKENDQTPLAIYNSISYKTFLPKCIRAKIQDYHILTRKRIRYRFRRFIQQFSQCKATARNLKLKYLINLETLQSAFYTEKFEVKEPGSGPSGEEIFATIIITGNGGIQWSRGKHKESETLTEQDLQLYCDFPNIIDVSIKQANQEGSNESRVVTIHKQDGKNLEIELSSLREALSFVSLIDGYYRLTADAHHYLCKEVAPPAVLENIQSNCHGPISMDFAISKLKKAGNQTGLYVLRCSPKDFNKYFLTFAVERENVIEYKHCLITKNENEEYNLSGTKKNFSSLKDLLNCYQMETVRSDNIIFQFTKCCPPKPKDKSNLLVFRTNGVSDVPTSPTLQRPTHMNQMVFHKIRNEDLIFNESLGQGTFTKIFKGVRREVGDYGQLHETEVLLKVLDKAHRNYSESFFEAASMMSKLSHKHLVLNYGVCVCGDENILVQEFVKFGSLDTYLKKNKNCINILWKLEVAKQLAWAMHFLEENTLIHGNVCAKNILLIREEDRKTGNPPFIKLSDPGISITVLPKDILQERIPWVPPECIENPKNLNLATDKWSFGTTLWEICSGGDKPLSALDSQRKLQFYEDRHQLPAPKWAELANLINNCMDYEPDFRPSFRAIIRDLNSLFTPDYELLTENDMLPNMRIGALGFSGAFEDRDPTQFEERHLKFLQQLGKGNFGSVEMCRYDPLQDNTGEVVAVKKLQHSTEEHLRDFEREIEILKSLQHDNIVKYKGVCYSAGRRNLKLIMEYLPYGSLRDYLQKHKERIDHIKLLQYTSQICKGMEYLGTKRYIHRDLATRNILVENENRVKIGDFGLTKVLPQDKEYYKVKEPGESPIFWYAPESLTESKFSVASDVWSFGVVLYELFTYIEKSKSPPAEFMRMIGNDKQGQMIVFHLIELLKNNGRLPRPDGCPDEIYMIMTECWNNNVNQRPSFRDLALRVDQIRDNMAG
T1 sequence (O60674 whole entry V617F): as the sequence (O60674 whole entry) above, with V617F counted along it

Compound | GI50 [1] [nM] | IC50 (JAK2 V617F) [nM] | GI50 [2] [nM] | GI50 [3] [nM] | GI50 [4] [nM] | GI50 [5] [nM] | IC50 (JAK2) [nM] | IC50 (FLT3) [nM] | IC50 (CDK2/CyclinA) [nM]
O=C1NC/C=C/COCc2cccc(c2)Nc2nccc(n2)-c2cccc1c2 [Compound 17] | > 5000 | ≤ 1000 | > 5000 | > 5000 | > 5000 | > 5000 | ≤ 1000 | 1000 to 5000 | > 5000
C1=C/CN(C2CC2)Cc2cc(ccc2OCCN2CCOCC2)Nc2nccc(n2)-c2cccc(c2)OCC/1 [Compound 36] | > 5000 | ≤ 1000 | ≤ 1000 | 1000 to 5000 | ≤ 1000 | 1000 to 5000 | ≤ 1000 | ≤ 1000 | ≤ 1000
CN1C/C=C/CCOc2cccc(c2)-c2ccnc(n2)Nc2ccc(OCCN3CCCC3)c(c2)C1 [Compound 40] | ≤ 1000 | ≤ 1000 | ≤ 1000 | ≤ 1000 | ≤ 1000 | ≤ 1000 | ≤ 1000 | ≤ 1000 | ≤ 1000
CN1C/C=C/CCOc2cc(F)cc(c2)-c2ccnc(n2)Nc2ccc(OCCN3CCCC3)c(c2)C1 [Compound 52] | ≤ 1000 | ≤ 1000 | ≤ 1000 | ≤ 1000 | ≤ 1000 | ≤ 1000 | ≤ 1000 | ≤ 1000 | ≤ 1000

Other lines, results leading:

GI50 [1] [nM] | IC50 (JAK2 V617F) [nM] | GI50 [2] [nM] | GI50 [3] [nM] | GI50 [4] [nM] | GI50 [5] [nM] | IC50 (JAK2) [nM] | IC50 (FLT3) [nM] | IC50 (CDK2/CyclinA) [nM] | Compound
≤ 1000 | ≤ 1000 | ≤ 1000 | ≤ 1000 | ≤ 1000 | ≤ 1000 | ≤ 1000 | ≤ 1000 |  | CN1C/C=C/CCOc2cccc(c2)-c2ccnc(n2)Nc2cccc(c2)C1 [Compound 1]
≤ 1000 | ≤ 1000 | ≤ 1000 | ≤ 1000 | ≤ 1000 | ≤ 1000 | ≤ 1000 | ≤ 1000 | ≤ 1000 | CCN(CC)CCOc1ccc2cc1CN(C)C/C=C/CCOc1cccc(c1)-c1ccnc(n1)N2 [Compound 32]
